How the values were obtained:
[1] = target: κ opioid receptor (Homo sapiens (Human), UniProt P41145); assay: κ-opioid receptor [35S]GTPγS functional assay, U-2 OS cells; format: biochemical; details: for Emax: relative to U69,593, U-2 OS cells
Protocol: κ-Opioid Receptor Functional Assay Procedures: Functional [^35S]GTPγS binding assays were conducted as follows. κ opioid receptor membrane solution was prepared by sequentially adding final concentrations of 0.026 μg/μl κ membrane protein (in-house), 10 μg/mL saponin, 3 μM GDP and 0.20 nM [^35S]GTPγS to binding buffer (100 mM NaCl, 10 mM MgCl2, 20 mM HEPES, pH 7.4) on ice. The prepared membrane solution (190 μl/well) was transferred to 96-shallow well polypropylene plates containing 10 μl of 20× concentrated stock solutions of agonist prepared in DMSO. Plates were incubated for 30 min at a temperature of about 25° C. with shaking. Reactions were terminated by rapid filtration onto 96-well Unifilter GF/B filter plates (Perkin Elmer, Shelton, Conn.) using a 96-well tissue harvester (Packard) and followed by three filtration washes with 200 μl ice-cold binding buffer (10 mM NaH2PO4, 10 mM Na2HPO4, pH 7.4). Filter plates were subsequently dried at 50° C. for 2-3 hours. Fifty μl/well scintillation cocktail (Perkin Elmer, Shelton, Conn.) was added and plates were counted in a Packard Top-Count for 1 min/well.
κ-Opioid Receptor Functional Data: κ GTP EC50 is the concentration of a compound providing 50% of the maximal response for the compound at a κ receptor.
κ GTP Emax (%) is the maximal effect elicited by a compound relative to the effect elicited by U69,593.
(§1) The following TABLE 3 provides results on the activity response of certain Compounds of the Invention at the μ- and κ-opioid receptors determined as described above using U-2 OS cells.

[2] = target: μ-opioid receptor (Homo sapiens (Human), UniProt P35372); assay: μ-opioid receptor [35S]GTPγS functional assay, U-2 OS cells; format: biochemical; details: for Emax: relative to DAMGO, U-2 OS cells
Protocol: μ-Opioid Receptor Functional Assay Procedures: [^35S]GTPγS functional assays were conducted using freshly thawed μ-receptor membranes prepared in-house from a cell line expressing recombinant μ opioid receptor in a HEK-293, CHO or U-2 OS cell background, or purchased from a commercial source (Perkin Elmer, Shelton, Conn.; or DiscovRx, Fremont, Calif.). Assay reactions were prepared by sequentially adding the following reagents to binding buffer (100 mM NaCl, 10 mM MgCl2, 20 mM HEPES, pH 7.4) on ice (final concentrations indicated): membrane protein (0.026 mg/mL), saponin ([…]), GDP ([…]) and [^35S]GTPγS (0.20 nM; Perkin Elmer, Shelton, Conn.). The prepared membrane solution (190 μl/well) was transferred to 96-shallow well polypropylene plates containing 10 μl of 20× concentrated stock solutions of the agonist [D-Ala^2, N-methyl-Phe^4 Gly-ol^5]-enkephalin (DAMGO) prepared in dimethyl sulfoxide (DMSO). Plates were incubated for 30 min at about 25° C. with shaking. Reactions were terminated by rapid filtration onto 96-well Unifilter GF/B filter plates (Perkin Elmer, Shelton, Conn.) using a 96-well tissue harvester (Perkin Elmer, Shelton, Conn.) followed by three filtration washes with 200 μl of ice-cold wash buffer (10 mM NaH2PO4, 10 mM Na2HPO4, pH 7.4). Filter plates were subsequently dried at 50° C. for 2-3 hours. BetaScint scintillation cocktail (Perkin Elmer, Shelton, Conn.) was added (50 μl/well) and plates were counted using a Packard Top-Count for 1 min/well. Data were analyzed using the sigmoidal dose-response curve fitting functions in GraphPad PRISM v. 3.0, or an in-house function for non-linear, sigmoidal dose-response curve-fitting.
μ-Opioid Receptor Functional Data: μ GTP EC50 is the concentration of a compound providing 50% of the maximal response for the compound at a μ-opioid receptor.
μ GTP Emax (%) is the maximal effect elicited by a compound relative to the effect elicited by DAMGO, a standard μ agonist. Generally, the μ GTP Emax (%) value measures the efficacy of a compound to treat or prevent pain or other Conditions.
as §1

| SMILES | EC50 [1] [µM] | Emax [1] [%] | EC50 [2] [µM] | Emax [2] [%] |
| --- | --- | --- | --- | --- |
| COc1ccc2c(c1)[C@]13CCN(CC(F)(F)F)[C@H](C2)[C@]1(O)CC[C@@]1(C3)NC(=O)NC1=O [Compound 13, (4bR,4′S,8aS,9R)-8a-hydroxy-3-methoxy-11-(2,2,2-trifluoroethyl)-5,7,8,8a,9,10-hexahydrospiro[9,4b-(epiminoethano)phenanthrene-6,4′-imidazolidine]-2′,5′-dione] | > 20 | 65 ± 8.74 | > 20 | 10 |
| COc1ccc2c(c1)[C@]13CCN(CCF)[C@H](C2)[C@]1(O)CC[C@@]1(C3)NC(=O)NC1=O [Compound 14, (4bR,4′S,8aS,9R)-1-(2-fluoroethyl)-8a-hydroxy-3-methoxy-5,7,8,8a,9,10-hexahydrospiro[9,4b-(epiminoethano)phenanthrene-6,4′-imidazolidine]-2′,5′-dione] | > 20 | 110 ± 6.74 | > 20 | 14.5 |
| CCN1CC[C@]23C[C@]4(CC[C@@]2(O)[C@H]1Cc1ccc(OC)cc13)NC(=O)NC4=O [Compound 15, (4bR,4′S,8aS,9R)-11-ethyl-8a-hydroxy-3-methoxy-5,7,8,8a,9,10-hexahydrospiro[9,4b-(epiminoethano)phenanthrene-6,4′-imidazolidine]-2′,5′-dione] | > 20 | 65.3 ± 7.86 | > 20 | 8 |
| CCN1C(=O)N[C@]2(CC[C@@]3(O)[C@H]4Cc5ccc(OC)cc5[C@@]3(CCN4CC)C2)C1=O [Compound 16, (4bR,4′S,8aS,9R)-1′,11-diethyl-8a-hydroxy-3-methoxy-5,7,8,8a,9,10-hexahydrospiro[9,4b-(epiminoethano)phenanthrene-6,4′-imidazolidine]-2′,5′-dione] | > 20 | 50 ± 1 | > 20 | 8.5 |
| COc1ccc2c(c1)[C@]13CCN(CCC(F)(F)F)[C@H](C2)[C@]1(O)CC[C@@]1(C3)NC(=O)NC1=O [Compound 17, (4bR,4′S,8aS,9R)-8a-hydroxy-3-methoxy-11-(3,3,3-trifluoropropyl)-5,7,8,8a,9,10-hexahydrospiro[9,4b-(epiminoethano)phenanthrene-6,4′-imidazolidine]-2′,5′-dione] | > 20 | 83.7 ± 6.69 | > 20 | 18.5 ± 6.14 |
| COc1ccc2c(c1)[C@]13CCN(CCCC(F)(F)F)[C@H](C2)[C@]1(O)CC[C@@]1(C3)NC(=O)NC1=O [Compound 18, (4bR,4′S,8aS,9R)-8a-hydroxy-3-methoxy-11-(4,4,4-trifluorobutyl)-5,7,8,8a,9,10-hexahydrospiro[9,4b-(epiminoethano)phenanthrene-6,4′-imidazolidine]-2′,5′-dione] | > 20 | 86 ± 7.21 | > 20 | 20.7 ± 4.81 |
| COc1ccc2c(c1)[C@]13CCN(CC(F)F)[C@H](C2)[C@]1(O)CC[C@@]1(C3)NC(=O)NC1=O [Compound 19, (4bR,4′S,8aS,9R)-11-(2,2-difluoroethyl)-8a-hydroxy-3-methoxy-5,7,8,8a,9,10-hexahydrospiro[9,4b-(epiminoethano)phenanthrene-6,4′-imidazolidine]-2′,5′-dione] | > 20 | 52 | > 20 | 1 |
| COc1ccc2c(c1)[C@]13CCN(CCc4ccccc4)[C@H](C2)[C@]1(O)CC[C@@]1(C3)NC(=O)NC1=O [Compound 20, (4bR,4′S,8aS,9R)-8a-hydroxy-3-methoxy-11-phenethyl-5,7,8,8a,9,10-hexahydrospiro[9,4b-(epiminoethano)phenanthrene-6,4′-imidazolidine]-2′,5′-dione] | > 20 | 75.7 ± 11.5 | 0.664 ± 0.113 | 105 ± 1.23 |
| COc1ccc2c(c1)[C@]13CCN(CC=C(C)C)[C@H](C2)[C@]1(O)CC[C@@]1(C3)NC(=O)NC1=O [Compound 21, (4bR,4′S,8aS,9R)-8a-hydroxy-3-methoxy-11-(3-methylbut-2-en-1-yl)-5,7,8,8a,9,10-hexahydrospiro[9,4b-(epiminoethano)phenanthrene-6,4′-imidazolidine]-2′,5′-dione] | > 20 | -1 | > 20 | 5.5 |
| COc1ccc2c(c1)[C@]13CCN(CCC(C)C)[C@H](C2)[C@]1(O)CC[C@@]1(C3)NC(=O)NC1=O [Compound 22, (4bR,4′S,8aS,9R)-8a-hydroxy-11-isopentyl-3-methoxy-5,7,8,8a,9,10-hexahydrospiro[9,4b-(epiminoethano)phenanthrene-6,4′-imidazolidine]-2′,5′-dione] | > 20 | 91.3 ± 6.57 | 3.96 ± 1.41 | 46 ± 6 |
| COc1ccc2c(c1)[C@]13CCN(CC4CCCCC4)[C@H](C2)[C@]1(O)CC[C@@]1(C3)NC(=O)NC1=O [Compound 23, (4bR,4′S,8aS,9R)-11-(cyclohexylmethyl)-8a-hydroxy-3-methoxy-5,7,8,8a,9,10-hexahydrospiro[9,4b-(epiminoethano)phenanthrene-6,4′-imidazolidine]-2′,5′-dione] | > 20 | 98 ± 8.89 | > 20 | 11 |
| COc1ccc2c(c1)[C@]13CCN(C/C=C/c4ccccc4)[C@H](C2)[C@]1(O)CC[C@@]1(C3)NC(=O)NC1=O [Compound 24, (4bR,4′S,8aS,9R)-11-cinnamyl-8a-hydroxy-3-methoxy-5,7,8,8a,9,10-hexahydrospiro[9,4b-(epiminoethano)phenanthrene-6,4′-imidazolidine]-2′,5′-dione] | > 20 | 29.7 ± 1.86 | > 20 | 8 |
| COc1ccc2c(c1)[C@]13CCN(CC4CCOCC4)[C@H](C2)[C@]1(O)CC[C@@]1(C3)NC(=O)NC1=O [Compound 25, (4bR,4′S,8aS,9R)-8a-hydroxy-3-methoxy-11-((tetrahydro-2H-pyran-4-yl)methyl)-5,7,8,8a,9,10-hexahydrospiro[9,4b-(epiminoethano)phenanthrene-6,4′-imidazolidine]-2′,5′-dione] | > 20 | 10 ± 4.6 | > 20 | 6.67 ± 0.88 |
| COc1ccc2c(c1)[C@]13CCN(CCCc4ccccc4)[C@H](C2)[C@]1(O)CC[C@@]1(C3)NC(=O)NC1=O [Compound 26, (4bR,4′S,8aS,9R)-8a-hydroxy-3-methoxy-11-(3-phenylpropyl)-5,7,8,8a,9,10-hexahydrospiro[9,4b-(epiminoethano)phenanthrene-6,4′-imidazolidine]-2′,5′-dione] | > 20 | 63 ± 8.72 | > 20 | 26.7 ± 11.7 |
| O=C1NC(=O)[C@@]2(CC[C@@]3(O)[C@H]4Cc5ccc(O)cc5[C@@]3(CCN4CC3CCCCC3)C2)N1 [Compound 27, (4bR,4′S,8aS,9R)-11-(cyclohexylmethyl)-3,8a-dihydroxy-5,7,8,8a,9,10-hexahydrospiro[9,4b-(epiminoethano)phenanthrene-6,4′-imidazolidine]-2′,5′-dione] | 2.08 ± 0.406 | 33.3 ± 3.53 | 12.8 ± 3.86 | 21.3 ± 1.86 |
| CC(C)CCN1CC[C@]23C[C@]4(CC[C@@]2(O)[C@H]1Cc1ccc(O)cc13)NC(=O)NC4=O [Compound 28, (4bR,4′S,8aS,9R)-3,8a-dihydroxy-11-isopentyl-5,7,8,8a,9,10-hexahydrospiro[9,4b-(epiminoethano)phenanthrene-6,4′-imidazolidine]-2′,5′-dione] | 0.604 ± 0.112 | 88 ± 4.36 | 0.153 ± 0.0201 | 113 ± 2.78 |
| CCN1CC[C@]23C[C@]4(CC[C@@]2(O)[C@H]1Cc1ccc(O)cc13)NC(=O)NC4=O [Compound 29] | 0.25 ± 0.095 | 102 ± 2.19 | 1.26 ± 0.206 | 83.8 ± 0.8 |

Reference: patent US8987287B2, “Spirocyclic morphinans and their use” (Purdue Pharma L.P., priority 2012, dated 2015)
